According to the supplement of paper PMC10307832:

Columns and labels:
Assay in all cases: relative viability (nuclei count vs DMSO), 5 days (fraction); higher = more cells survive
VX-11e + Bortezomib = compound: CC1=CN=C(N=C1C2=CNC(=C2)C(=O)N[C@H](CO)C3=CC(=CC=C3)Cl)NC4=C(C=C(C=C4)F)Cl [VX-11e] + CC(C)C[C@H](NC(=O)[C@H](Cc1ccccc1)NC(=O)c1cnccn1)B(O)O [Bortezomib] (partner 0.002 µM)
Procedure, shortened: (§1)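 Lung cancer cell lines in 1536-well plates were dosed by pin tool the day after seeding, either with one drug alone or with a fixed anchor-drug dose plus five library-drug doses (not always all listed) in √10 steps. After 5 days, cells were fixed and their nuclei stained in one step (final 0.05% Triton X-100, 1% formaldehyde, 1 ug/ml Hoechst), then counted on 4× images. Relative viability is the nuclei count in treated wells divided by that in vehicle wells. Values are medians of duplicate plates.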

VX-11e + Dasatinib = compound: CC1=CN=C(N=C1C2=CNC(=C2)C(=O)N[C@H](CO)C3=CC(=CC=C3)Cl)NC4=C(C=C(C=C4)F)Cl [VX-11e] + Cc1nc(Nc2ncc(C(=O)Nc3c(C)cccc3Cl)s2)cc(N2CCN(CCO)CC2)n1 [Dasatinib] (partner 0.075 µM)
Procedure, shortened: as §1

VX-11e + Alpelisib = compound: CC1=CN=C(N=C1C2=CNC(=C2)C(=O)N[C@H](CO)C3=CC(=CC=C3)Cl)NC4=C(C=C(C=C4)F)Cl [VX-11e] + Cc1nc(NC(=O)N2CCC[C@H]2C(N)=O)sc1-c1ccnc(C(C)(C)C(F)(F)F)c1 [Alpelisib] (partner 2 µM)
Procedure, shortened: as §1

VX-11e + Palbociclib = compound: CC1=CN=C(N=C1C2=CNC(=C2)C(=O)N[C@H](CO)C3=CC(=CC=C3)Cl)NC4=C(C=C(C=C4)F)Cl [VX-11e] + CC(=O)c1c(C)c2cnc(Nc3ccc(N4CCNCC4)cn3)nc2n(C2CCCC2)c1=O [Palbociclib] (partner 0.5 µM)
Procedure, shortened: as §1

Cell Line	relative viability (VX-11e + Bortezomib; first compound 0.04 µM)	relative viability (VX-11e + Bortezomib; first compound 0.1265 µM)	relative viability (VX-11e + Bortezomib; first compound 0.4 µM)	relative viability (VX-11e + Bortezomib; first compound 1.265 µM)	relative viability (VX-11e + Bortezomib; first compound 4 µM)	relative viability (VX-11e + Dasatinib; first compound 0.04 µM)	relative viability (VX-11e + Dasatinib; first compound 0.1265 µM)	relative viability (VX-11e + Dasatinib; first compound 0.4 µM)	relative viability (VX-11e + Dasatinib; first compound 1.265 µM)	relative viability (VX-11e + Dasatinib; first compound 4 µM)	relative viability (VX-11e + Alpelisib; first compound 0.04 µM)	relative viability (VX-11e + Alpelisib; first compound 0.1265 µM)	relative viability (VX-11e + Alpelisib; first compound 0.4 µM)	relative viability (VX-11e + Alpelisib; first compound 1.265 µM)	relative viability (VX-11e + Alpelisib; first compound 4 µM)	relative viability (VX-11e + Palbociclib; first compound 0.04 µM)	relative viability (VX-11e + Palbociclib; first compound 0.1265 µM)	relative viability (VX-11e + Palbociclib; first compound 0.4 µM)	relative viability (VX-11e + Palbociclib; first compound 1.265 µM)	relative viability (VX-11e + Palbociclib; first compound 4 µM)
HARA	0.992	1.08	1.13	0.507	0.803	0.306	0.2	0.273	0.248	0.157	0.772	0.776	0.787	0.865	0.338	0.337	0.237	0.196	0.158	0.178
CAL-12T	–	–	0.91	0.715	0.509	0.466	0.34	0.249	0.243	0.111	1.4	1.03	1.07	0.898	0.295	0.391	0.433	0.331	0.141	0.116
LCLC-103H	1.07	1.11	1.03	0.658	0.917	0.45	0.435	0.545	0.446	0.444	1.06	0.905	0.861	0.828	0.819	0.469	0.435	0.502	0.456	0.448
A-427	1.11	0.955	1.06	1.04	0.479	0.751	0.574	0.488	0.232	0.114	0.962	1.06	0.878	0.667	0.239	0.553	0.442	0.516	0.496	0.336
NCI-H520	0.621	0.49	0.636	0.486	0.474	0.175	0.188	0.199	0.338	0.293	0.919	0.939	0.863	0.982	0.619	0.202	0.254	0.232	0.244	0.292
NCI-H2009	1.08	0.944	0.797	0.254	0.201	0.307	0.286	0.242	0.169	0.122	1.2	1.1	1.07	0.571	0.285	0.177	0.171	0.187	0.158	0.0988
NCI-H2085	1.04	0.979	1.03	0.898	0.825	0.296	0.241	0.217	0.188	0.193	1.11	0.88	0.913	0.842	0.699	0.498	0.437	0.457	0.404	0.366
NCI-H1666	0.877	0.862	0.627	0.678	0.505	0.855	0.87	0.69	0.688	0.477	0.706	1.01	0.8	0.461	0.333	0.616	0.632	–	0.68	0.72
LCLC-97TM1	0.591	0.675	0.943	0.339	0.107	1	0.728	0.793	0.547	0.301	0.285	0.253	–	0.192	0.12	0.202	0.176	0.194	–	0.114
NCI-H1755	0.965	0.931	0.884	0.923	0.608	0.444	0.392	0.413	0.398	0.298	0.962	0.885	0.882	0.931	0.497	0.429	0.404	0.45	0.43	0.417
H3255	0.709	0.857	0.657	0.612	0.64	0.37	0.38	0.538	0.281	0.347	0.662	0.617	0.436	0.688	0.562	0.312	0.305	0.316	0.316	0.327
NCI-H2087	0.863	0.639	0.582	0.921	0.287	0.943	0.73	–	0.301	0.202	1.09	1.06	0.946	0.983	0.276	0.203	0.244	–	0.176	0.176
BEN	0.543	0.779	0.942	0.533	0.725	–	0.277	0.399	0.236	0.252	1.14	0.906	1.04	0.612	0.806	0.46	0.401	0.465	0.47	0.431
COR-L23	1.29	0.967	1.12	0.667	0.348	0.486	0.453	0.442	0.355	0.208	0.913	0.742	0.669	0.379	0.17	0.376	0.274	0.225	0.183	0.123
ABC-1	0.268	0.246	0.262	0.263	0.263	0.72	0.551	0.468	0.561	0.497	0.988	0.735	0.832	0.857	0.725	0.568	–	0.655	0.548	0.65
